Experiments:
[1] = system: MM cells; test: Surface CD138 expression of MM cells by flow cytometry; type: cell-based, human
Method: (§1) Coculture experiments. 24-well plates were coated with 0.1% gelatin in PBS for 30 min at 37° C. The gelatin solution was removed, and the stromal cells were cultured overnight at a density of 5×10^4 cells/well to obtain a confluent monolayer. At that time, MM cell lines or primary MM cells (1×10^5 in 2 ml) were added to the stroma cultures. The stroma cocultures were incubated at 37° C. in RPMI containing 10% FCS, L-glutamine, and P/S, with or without AGN19194310 (1 μM for 5 days), R115866 (1 μM for 5 days), IRX5183 (1 μM for 5 days), or BTZ (2.5 nM for 48 hr).
Flow cytometry. Following treatment, MM cells were collected, washed with PBS, and stained for 15 min at room temperature with phycoerythrin-conjugated (PE-conjugated) anti-CD138. Cells were washed to remove unbound antibody and evaluated in a FACSCalibur system (BD Biosciences). Stromal cells were identified by GFP expression, and viable cells were identified using 7-aminoactinomycin D (7-AAD). To calculate cell numbers, live GFP-cells were normalized to calibration beads.

[2] = system: MM H929 cell lines and MM CD138+ primary cells; test: qRT-PCR of B cell and PC markers in MM cells with or without BM stroma coculture; type: cell-based, human; details: for mRNA expression of B cell and PC markers (BCL6, BLIMP1, XBP1s, CHOP): compound 1 μM for 5 days; for expression of differentiation markers by qRT-PCR or flow cytometry: liquid conditions versus BM stroma
Method: Cell cultures. All cell lines were purchased from the American Type Culture Collection. H929, MM1s, and U266 cells were cultured in RPMI 1640 with 10% FCS (Sigma-Aldrich), 2 mM L-glutamine, and 100 μg/ml penicillin-streptomycin (P/S). OP-9 cells were cultured in α-MEM, 20% FCS, L-glutamine, and P/S. Cell lines were authenticated by short-tandem repeat profiling.
Primary MM cells were obtained from patients with newly diagnosed or relapsed MM under an IRB-approved protocol at The Johns Hopkins University. Briefly, mononuclear cells were isolated from fresh BM aspirates by density gradient centrifugation (Ficoll-Paque); CD138+ cells were then selected via magnetic beads and columns and incubated in RPMI 1640, 10% FCS, L-glutamine, and P/S at 37° C.
as §1
(§2) qRT-PCR. Total RNA was extracted using the RNeasy Mini Kit (QIAGEN) according to the manufacturer's instructions. cDNA was synthesized by reverse transcription using the iScript cDNA Synthesis Kit (Bio-Rad). qRT-PCR was performed with iTaq SYBR Green Supermix (Bio-Rad) using sequence specific primers. Gene expression was normalized to GAPDH, and relative quantification was calculated using ΔΔCt. All experiments were performed in duplicate and run on the Bio-Rad CFX96 machine.

[3] = system: MM cell lines and MM CD138+ primary cells; test: BTZ sensitivity (clonogenic or cellular recovery) of MM cells after incubation with BM stroma; type: cell-based, human; details: for effect on stroma-induced BTZ resistance: stroma coculture with compound 1 μM 5 days
Method: as §1
Mobilization experiments. MM cells were separated from BM stromal cells by gently pipetting several times around the well. Detached cells were centrifuged, resuspended in fresh media, and incubated in a 24-well plate for 1 hr at 37° C. During this short incubation period, contaminating stromal cells attached to the well, while MM cells remained in suspension. MM cells were then recovered by gently pipetting. This protocol was used for qRT-PCR and CFU coculture experiments. The purity achieved using this protocol was confirmed by flow cytometry to be 98%-99% MM cells and less than 2% contaminating stroma.
Clonogenic assays. After treatment, MM cells were collected, washed with PBS, and plated at a density of 5,000 cells/ml in 1 ml of 1.32% methylcellulose supplemented with 30% FBS, 10% BSA, L-glutamine, P/S, and 0.1 mM p-ME. Cells were plated in triplicate in 35-mm culture dishes, incubated at 37° C., and scored for the presence of colonies 14 days later.

[4] = system: OCI-AML 3, Kasumi-1 and APL NB4 cells; test: Clonogenic growth of AML cell lines in the presence or absence of stroma; type: cell-based; details: for clonogenic growth (CFU) compared to control: off and on stroma, NB4: 10^-7 M IRX5183, 10^-8 M AM80, OCI-AML3, Kasumi-1: 10^-6 M IRX5183, 10^-7 M AM80; for clonogenic growth: presence or absence of stroma
Method: The BM stroma, which expresses inducibly high levels of CYP26, metabolically inactivates ATRA and provides a protected environment for AML cancer stem cells. Synthetic, CYP26-resistant RARα agonists, such as IRX5183 and AM80, should be able to bypass stroma-mediated protection of AML cells and differentiate the cancer stem cells resident in the protected environment of bone marrow niche. To test these hypotheses, clonogenic growth experiments were conducted in the non-APL AML cell lines OCI-AML 3 and Kasumi-1 and APL NB4 cells, which were treated with ATRA, IRX5183, and AM80 in the presence or absence of stroma.

[5] = system: FLT3/ITD acute myeloid leukemia (AML) cells; details: recent studies; cited from earlier work
[6] = system: non-APL AML cells; details: in vitro; cited from earlier work
[7] = system: AML; details: patients; cited from earlier work
[8] = system: H929 Luc+ cells with WT or Smo-KO stroma; test: Subcutaneous xenograft model of MM-niche interactions (WT or Smo-KO stroma); type: in vivo, NSG mice
Method: Mouse xenografts. 1×10^6 H929 Luc+ cells and 1×10^6 mouse BM stromal cells were resuspended in 100 μl Matrigel, diluted with RPMI (1:1), and injected subcutaneously into 16-week-old male NSG mice. After 4 days, treatment with BTZ (0.5 mg/kg i.p. twice weekly) and IRX (10 mg/kg i.p. daily) was initiated. Tumor burden was assessed by bioluminescence using the In Vivo Imaging System (PerkinElmer). For imaging, mice were exposed to 120 mg/kg D-luciferin via intraperitoneal injection […] before imaging and were anesthetized using isoflurane. Images were analyzed with Living Image Software, version 2.5 (PerkinElmer), and data were quantified as photons/second.
To study to what extent an RA-low environment created by the BM stroma and enhanced by MM cells via paracrine Hedgehog signaling contributes to BTZ resistance, a xenograft model of MM-niche interactions was developed. Each mouse carried 2 subcutaneous tumors consisting of H929 Luc+ cells and either WT (anterior tumors) or Smo-KO stroma (posterior tumors). Mice were treated with IRX (10 mg/kg i.p. daily), BTZ (0.5 mg/kg i.p. twice weekly), or a combination of both. The growth of tumors bearing WT or Smo-KO stroma was not different in untreated or IRX-treated groups (FIGS. 7 and 8). […] While some tumors in the treatment group receiving combined IRX and BTZ appeared to have regressed completely, even after anatomical study, this was not the case for all the mice in this group.

[9] = system: H929 luciferase+ (Luc+) cells; test: Systemic MM xenograft, bioluminescence imaging; type: in vivo, NSG mice; details: 4 weeks; for tumor burden (bioluminescence): monotherapy, BTZ 0.5 mg/kg i.p. twice weekly or IRX 10 mg/kg once daily
Method: For the systemic MM model, 2×10^6 Luc+/GFP+H929 cells were injected via the tail vein into 16-week-old male NSG mice. After engraftment, as determined by an exponential increase in bioluminescence, mice were treated with BTZ (0.5 mg/kg i.p.) twice weekly and with IRX (10 mg/kg) once daily. Tumor burden was assessed by bioluminescence, as above.
To test whether retinoids can enhance BTZ activity in MM, a systemic MM xenograft was developed by injecting 2×10^6 H929 luciferase+(Luc+) cells via the tail vein of nonobese, diabetic, severe combined immunodeficiency IL-2 receptor γ-KO (NSG) mice. The animals were randomized to receive IRX, BTZ, or a combination of both, and disease burden was followed weekly by bioluminescence imaging (FIG. 4).

[10] = system: BM stromal cells cocultured with MM cells; test: Stromal Cyp26a1 upregulation by MM cells in coculture; type: cell-based, mouse; details: SMO inhibitor in coculture
Method: as §1, §2
To confirm the role of paracrine Hedgehog on this interaction, smoothened (Smo), a membrane receptor that transduces SHH signaling, was knocked out at the genomic level in the mesenchymal compartment. For this, BM mesenchymal cells derived from Smo^fl/fl mice were transduced with a retroviral vector encoding Cre recombinase (Smo-KO stroma). […]

[11] = system: relapse/refractory MM patients; details: in combination with BTZ; cited from earlier work
[12] = system: BM stromal cells; test: Effect of soluble factors on CYP26A1 expression in BM stromal cells; type: cell-based; details: soluble factor added to BM stromal cells
Method: as §2

[13] = BM stromal cell cocultures incubated with compound

CCc1ccc(C2=CC(C)(C)Sc3ccc(C#Cc4ccc(C(=O)O)cc4)cc32)cc1 [AGN194310]
surface CD138 expression ([1]; absence of stroma, incubation with compound): markedly decreased
mRNA expression of B cell and PC markers (BCL6, BLIMP1, XBP1s, CHOP) ([2]; absence of stroma (Liquid)): mimicked the changes induced by BM stromal cells
effect on BTZ sensitivity ([3]; absence of stroma, compound 1 μM 5 days, then BTZ): decreasing BTZ sensitivity

CC1(C)CCC(C)(C)c2cc(NC(=O)c3ccc(C(=O)O)cc3)ccc21 [AM80, 4-[(5,6,7,8-tetrahydro-5,5,8,8-tetramethyl-2-naphthalenyl)carbamoyl]benzoic acid]
clonogenic growth (CFU) compared to control [4]: decrease in clonogenic growth compared to control
clonogenic growth [4]: inhibited clonogenic growth in the presence of stroma but not as effectively as IRX5183
differentiation and sensitivity to FLT3 inhibitors [5]: differentiates FMS-like tyrosine kinase 3/internal tandem duplication (FLT3/ITD) acute myeloid leukemia (AML) cells and increase their sensitivity to FLT3 inhibitors

CC1=C(/C=C/C(C)=C/C=C/C(C)=C/C(=O)O)C(C)(C)CCC1 [ATRA, All-trans retinoic acid]
clonogenic growth [4]: inhibited clonogenic growth only in the absence of stroma
differentiation and apoptosis [6]: causes terminal differentiation and apoptosis
clinical effectiveness [7]: clinically ineffective

CC(C)C[C@H](NC(=O)[C@H](Cc1ccccc1)NC(=O)c1cnccn1)B(O)O [BTZ, bortezomib]
tumor response (bioluminescence) ([8]; tumors carrying Smo-KO stroma, BTZ 0.5 mg/kg i.p. twice weekly): significant response
tumor response (bioluminescence) ([8]; tumors with WT stroma, BTZ 0.5 mg/kg i.p. twice weekly): refractory to BTZ treatment
BTZ resistance after separation from BM stroma ([3]; H929 cells, 5-day stroma coculture, fresh media 0 to 48 hr, then BTZ): remained partially resistant to BTZ for up to 48 hr following detachment from stroma
sensitivity of MM cells to BTZ ([3]; Smo-KO stroma compared with WT stroma): increased sensitivity to BTZ
sensitivity of MM cells to BTZ ([3]; absence of BM stroma (liquid), BTZ 2.5 nM 48 hr): highly sensitive to BTZ
sensitivity of MM cells to BTZ ([3]; after 5 days incubation with BM stroma, BTZ 2.5 nM 48 hr): incubation with BM stroma induced BTZ resistance
tumor burden (bioluminescence) [9]: decreased tumor growth compared with untreated controls

CC1(C)CCC(C)(C)c2c1cc(C(=O)Nc1cc(F)c(C(=O)O)c(F)c1)c(O)c2Cl [IRX5183]
surface CD138 expression [1, 13]: restored CD138 expression
growth of tumors bearing WT versus Smo-KO stroma ([8]; IRX 10 mg/kg i.p. daily alone): not different
tumor response (bioluminescence) ([8]; combination of IRX 10 mg/kg daily and BTZ 0.5 mg/kg twice weekly, WT and Smo-KO stroma): significant and equivalent response, regardless of the phenotype of the stromal compartment
expression of differentiation markers by qRT-PCR or flow cytometry [2]: induced comparable changes, irrespective of the presence or absence of BM stroma
mRNA expression of B cell and PC markers (BCL6, BLIMP1, XBP1s, CHOP) ([2]; stroma cocultures): restored all markers to levels comparable to those of liquid control conditions
clonogenic growth (CFU) compared to control [4]: decrease in clonogenic growth compared to control
clonogenic growth [4]: inhibited clonogenic growth to a similar extent in the presence or absence of stroma
effect on stroma-induced BTZ resistance ([3]; then BTZ): overcome
disease burden (bioluminescence) ([9]; IRX 10 mg/kg daily combined with BTZ 0.5 mg/kg twice weekly): significant (P<0.01) decrease in disease burden
tumor burden (bioluminescence) [9]: decrease in tumor burden compared with untreated mice

CCC(CC)C(c1ccc(Nc2nc3ccccc3s2)cc1)n1cncn1 (centres unmarked) [R115866]
surface CD138 expression [1, 13]: restored CD138 expression
expression of differentiation markers by qRT-PCR or flow cytometry [2]: did not significantly affect the expression of differentiation markers
mRNA expression of B cell and PC markers (BCL6, BLIMP1, XBP1s, CHOP) ([2]; stroma cocultures): restored all markers to levels comparable to those of liquid control conditions
effect on BTZ resistance after separation from BM stroma ([3]; H929 cells, coculture treated with compound 1 μM before separation): prevented the development of a BTZ-resistant phenotype
effect on stroma-induced BTZ resistance ([3]; then BTZ): overcome

CC1=C2C[C@H]3[C@@H](CC=C4C[C@@H](O)CC[C@@]43C)[C@@H]2CC[C@]12O[C@@H]1C[C@H](C)CN[C@H]1[C@H]2C [cyclopamine]
stromal Cyp26a1 upregulation by MM cells [10]: partially overcame stromal Cyp26a1 upregulation by MM cells

c1cc(CN2CCCNCCNCCCNCC2)ccc1CN1CCCNCCNCCCNCC1 [plerixafor]
response rates [11]: improved response rates

IL-6: cytokine, soluble factor produced by MM cells
upregulation of CYP26A1 on BM stromal cells [12]: no significant effects

TNF-α
upregulation of CYP26A1 on BM stromal cells [12]: no significant effects

Reference: patent publication US11648222B2, “Use of CYP26-resistant RAR alpha selective agonists in the treatment of cancer” (Io Therapeutics, Inc., priority 2015, dated 2023)
